Target: T1, PSMA-positive malignant lesions (Homo sapiens, UniProt Q04609)
T1 construct: from tissue; host or cells: prostate cancer lesions (bone and nodal metastases, prostate) of eight trial subjects
Experiment: Human clinical trial, PET/CT comparison between Pylarify and [^61Cu]Cu-NODAGA-PSMA I&T
Format: in vivo
Method: This is a phase I, single center, non-randomized trial with 6-10 subjects. Each subject will have biopsy-proven prostate cancer visualized on FDA-approved ^18F-piflufolastat PET/CT performed within 3 weeks of trial recruitment. Each subject will receive a single administration of [^61Cu]Cu-NODAGA-PSMA I&T, followed by PET/CT imaging. Safety of [^61Cu]Cu-NODAGA-PSMA I&T will be evaluated by monitoring for unlikely adverse effects.
Subjects will undergo administration of 10 mL of 100-300 MBq (2.7-8.1 mCi) [^61Cu]Cu-NODAGA-PSMA I&T composition intravenously described in Table 20, followed by PET/CT imaging 60 (+/−10) minutes post radiotracer administration.
• Perform and record vital signs. • Place IV catheter. • Obtain blood for whole blood and plasma radioactivity counts prior to radiotracer administration and at 3-5 time points post radiotracer administration, from the following time ranges • a. 15 minutes (+/−10 minutes) • b. 30 minutes (+/−10 minutes) • c. 60 minutes (+/−15 minutes) • d. 120-240 minutes • e. 240-420 minutes • Administer 100-300 MBq ([…]) of [^61Cu]Cu-NODAGA-PSMA I&T composition intravenously. • Perform and record vital signs and assess for adverse reactions 30-60 minutes and 120-240 minutes post radiotracer administration. • Perform PET/CT imaging at 2 or 3 time points post radiotracer administration, from the following time ranges. • a. 60 minutes (+/−15 minutes) • b. 120-240 minutes • c. 240-420 minutes • Perform and record vital signs and assess for adverse reactions 120 (+/−10 minutes) post radiotracer administration. Visit 3—Day after Phone Call • Record any adverse reactions.
For the secondary objective of effectiveness, the number of suspected PSMA-positive malignant lesions will be calculated in both the standard-of-care ^18F-Piflufolastat PET/CT and the experimental [^61Cu]Cu-NODAGA-PSMA I&T PET/CT. The percentage of patients with any suspected PSMA-positive malignant lesions will be determined for each radiotracer. To assess whether the distribution of the number of lesions was higher with ^18F-Piflufolastat PET/CT or [^61Cu]Cu-NODAGA-PSMA I&T, 1-sided Wilcoxon […] tests for paired data will be performed. To account for the small sample size, results with a P value of less than 0.1 will be considered statistically significant.

T1 sequence (Q04609 whole entry): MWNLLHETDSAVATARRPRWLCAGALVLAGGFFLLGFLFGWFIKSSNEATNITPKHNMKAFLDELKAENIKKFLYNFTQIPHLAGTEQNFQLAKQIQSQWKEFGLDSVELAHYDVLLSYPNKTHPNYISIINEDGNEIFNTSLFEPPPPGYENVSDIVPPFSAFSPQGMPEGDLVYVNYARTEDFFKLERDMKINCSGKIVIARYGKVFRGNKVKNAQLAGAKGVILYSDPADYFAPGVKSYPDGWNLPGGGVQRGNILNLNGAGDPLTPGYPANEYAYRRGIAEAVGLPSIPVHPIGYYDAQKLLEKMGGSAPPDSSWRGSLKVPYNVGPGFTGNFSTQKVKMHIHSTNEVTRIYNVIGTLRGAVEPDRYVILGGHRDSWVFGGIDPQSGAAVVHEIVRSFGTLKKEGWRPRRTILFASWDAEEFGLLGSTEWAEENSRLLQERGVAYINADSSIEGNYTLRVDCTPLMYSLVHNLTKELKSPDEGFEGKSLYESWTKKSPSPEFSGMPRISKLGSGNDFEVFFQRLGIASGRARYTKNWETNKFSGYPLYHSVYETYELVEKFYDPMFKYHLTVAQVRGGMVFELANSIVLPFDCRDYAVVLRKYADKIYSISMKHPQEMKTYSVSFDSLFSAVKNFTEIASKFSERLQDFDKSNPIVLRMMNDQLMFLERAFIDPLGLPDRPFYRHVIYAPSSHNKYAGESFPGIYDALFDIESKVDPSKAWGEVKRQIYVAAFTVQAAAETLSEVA

For `O=C([O-])CN1CCN(CC(=O)[O-])CCN([C@H](CCC(=O)N[C@H](Cc2ccc(O)c(I)c2)C(=O)N[C@H](Cc2ccccc2)C(=O)N[C@H](CCCCNC(=O)CCCCCCC(=O)NCCCC[C@H](NC(=O)N[C@@H](CCC(=O)O)C(=O)O)C(=O)O)C(=O)O)C(=O)O)CC1.[61Cu+2]` [[^61Cu]Cu-NODAGA-PSMA I&T], the Concordance (Subject 1) was 100%, the “% difference from Pylarify results at 1 hour” value (“% difference” below) (Subject 1, 1 hour) was “(12%)” and the “New Lesions Detected with [^61Cu]Cu-NODAGA-PSMA I&T” value (shortened to “New Lesions Detected”) (Subject 1, 1 hour) was 5. For the same molecule, the “Tumor-to-Background Ratio with [^61Cu]Cu-NODAGA-PSMA I&T” value (Subject 1, 1 hour) was 59.9, the “% difference” value (Subject 1, 2 hour) was “(115%)” and the “New Lesions Detected” value (Subject 1, 2 hour) was 7. The “Tumor-to-Background Ratio with [^61Cu]Cu-NODAGA-PSMA I&T” value (Subject 1, 2 hour) was 114.5, the “% difference” value (Subject 1, 4 hour) was “(154%)” and the “New Lesions Detected” value (Subject 1, 4 hour) was 8. For the same molecule, the “Tumor-to-Background Ratio with [^61Cu]Cu-NODAGA-PSMA I&T” value (Subject 1, 4 hour) was 135.5, the Concordance (Subject 2) was 100% and the “% difference” value (Subject 2, 1 hour) was “(37%)”. For the same molecule, the “New Lesions Detected” value (Subject 2, 1 hour) was 0, the “Tumor-to-Background Ratio with [^61Cu]Cu-NODAGA-PSMA I&T” value (Subject 2, 1 hour) was 5.3 and the “% difference” value (Subject 2, 2 hour) was “(−13%)”. For the same molecule, the “New Lesions Detected” value (Subject 2, 2 hour) was 0, the “Tumor-to-Background Ratio with [^61Cu]Cu-NODAGA-PSMA I&T” value (Subject 2, 2 hour) was 3.4 and the “% difference” value (Subject 2, 4 hour) was “(−43%)”. The “New Lesions Detected” value (Subject 2, 4 hour) was 0, the “Tumor-to-Background Ratio with [^61Cu]Cu-NODAGA-PSMA I&T” value (Subject 2, 4 hour) was 2.2 and the Concordance (Subject 3) was 100%. For the same molecule, the “% difference” value (Subject 3, 1 hour) was “(52%)”, the “New Lesions Detected” value (Subject 3, 1 hour) was 1 and the “Tumor-to-Background Ratio with [^61Cu]Cu-NODAGA-PSMA I&T” value (Subject 3, 1 hour) was 9.3. The “% difference” value (Subject 3, 2 hour) was “(9%)”, the “New Lesions Detected” value (Subject 3, 2 hour) was 1 and the “Tumor-to-Background Ratio with [^61Cu]Cu-NODAGA-PSMA I&T” value (Subject 3, 2 hour) was 6.7. For the same molecule, the “% difference” value (Subject 3, 4 hour) was “(274%)”, the “New Lesions Detected” value (Subject 3, 4 hour) was 3 and the “Tumor-to-Background Ratio with [^61Cu]Cu-NODAGA-PSMA I&T” value (Subject 3, 4 hour) was 23.0. The Concordance (Subject 4) was 100%, the “% difference” value (Subject 4, 1 hour) was “(64%)” and the “New Lesions Detected” value (Subject 4, 1 hour) was 0. For the same molecule, the “Tumor-to-Background Ratio with [^61Cu]Cu-NODAGA-PSMA I&T” value (Subject 4, 1 hour) was 126.2, the “% difference” value (Subject 4, 2 hour) was “(110%)” and the “New Lesions Detected” value (Subject 4, 2 hour) was 2. For the same molecule, the “Tumor-to-Background Ratio with [^61Cu]Cu-NODAGA-PSMA I&T” value (Subject 4, 2 hour) was 161.4, the “% difference” value (Subject 4, 4 hour) was “(98%)” and the “New Lesions Detected” value (Subject 4, 4 hour) was 10. For the same molecule, the “Tumor-to-Background Ratio with [^61Cu]Cu-NODAGA-PSMA I&T” value (Subject 4, 4 hour) was 152.8, the Concordance (Subject 5) was 100% and the “% difference” value (Subject 5, 1 hour) was “(98%)”. For the same molecule, the “New Lesions Detected” value (Subject 5, 1 hour) was 0, the “Tumor-to-Background Ratio with [^61Cu]Cu-NODAGA-PSMA I&T” value (Subject 5, 1 hour) was 53.3 and the “% difference” value (Subject 5, 2 hour) was “(154%)”. The “New Lesions Detected” value (Subject 5, 2 hour) was 0, the “Tumor-to-Background Ratio with [^61Cu]Cu-NODAGA-PSMA I&T” value (Subject 5, 2 hour) was 68.3 and the “% difference” value (Subject 5, 4 hour) was “(160%)”. For the same molecule, the “New Lesions Detected” value (Subject 5, 4 hour) was 0, the “Tumor-to-Background Ratio with [^61Cu]Cu-NODAGA-PSMA I&T” value (Subject 5, 4 hour) was 70.0 and the Concordance (Subject 6) was 100%. The “% difference” value (Subject 6, 1 hour) was “(60%)”, the “New Lesions Detected” value (Subject 6, 1 hour) was 0 and the “Tumor-to-Background Ratio with [^61Cu]Cu-NODAGA-PSMA I&T” value (Subject 6, 1 hour) was 11.3. The “% difference” value (Subject 6, 2 hour) was “(126%)”, the “New Lesions Detected” value (Subject 6, 2 hour) was 0 and the “Tumor-to-Background Ratio with [^61Cu]Cu-NODAGA-PSMA I&T” value (Subject 6, 2 hour) was 16.0. For the same molecule, the “% difference” value (Subject 6, 4 hour) was “(230%)”, the “New Lesions Detected” value (Subject 6, 4 hour) was 0 and the “Tumor-to-Background Ratio with [^61Cu]Cu-NODAGA-PSMA I&T” value (Subject 6, 4 hour) was 23.3. The Concordance (Subject 7) was 100%, the “% difference” value (Subject 7, 1 hour) was “(45%)” and the “New Lesions Detected” value (Subject 7, 1 hour) was 3. The “Tumor-to-Background Ratio with [^61Cu]Cu-NODAGA-PSMA I&T” value (Subject 7, 1 hour) was 5.6, the “% difference” value (Subject 7, 2 hour) was “(70%)” and the “New Lesions Detected” value (Subject 7, 2 hour) was 3. For the same molecule, the “Tumor-to-Background Ratio with [^61Cu]Cu-NODAGA-PSMA I&T” value (Subject 7, 2 hour) was 6.6, the “% difference” value (Subject 7, 4 hour) was “(287%)” and the “New Lesions Detected” value (Subject 7, 4 hour) was 5. For the same molecule, the “Tumor-to-Background Ratio with [^61Cu]Cu-NODAGA-PSMA I&T” value (Subject 7, 4 hour) was 15.0, the Concordance (Subject 8) was 100% and the “% difference” value (Subject 8, 1 hour) was “(−10%)”. The “New Lesions Detected” value (Subject 8, 1 hour) was 0, the “Tumor-to-Background Ratio with [^61Cu]Cu-NODAGA-PSMA I&T” value (Subject 8, 1 hour) was 24.2 and the “% difference” value (Subject 8, 2 hour) was “(29%)”. The “New Lesions Detected” value (Subject 8, 2 hour) was 0, the “Tumor-to-Background Ratio with [^61Cu]Cu-NODAGA-PSMA I&T” value (Subject 8, 2 hour) was 34.5 and the “% difference” value (Subject 8, 4 hour) was “(123%)”. For the same molecule, the “New Lesions Detected” value (Subject 8, 4 hour) was 0, the “Tumor-to-Background Ratio with [^61Cu]Cu-NODAGA-PSMA I&T” value (Subject 8, 4 hour) was 59.7 and the “metastases visualized compared with Pylarify PET/CT” value (Subject #1) was “More osseous metastases were visualized”. The “metastases visualized compared with Pylarify PET/CT” value (Subject #2) was “Same number of metastases were observed”, the “pelvic nodal metastases seen on PET/CT” value (Subject #3, 4 hours) was 5 and the “metastases visualized compared with Pylarify PET/CT” value (Subject #4) was “More osseous metastases were observed”. The “metastases visualized compared with Pylarify PET/CT” value (Subject #5) was “Equal number of osseous metastases were observed”, the “metastases visualized compared with Pylarify PET/CT” value (Subject #6) was “One avid 0.4 cm left pelvic sidewall lymph node seen on both” and the “metastases visualized compared with Pylarify PET/CT” value (Subject #7) was “More osseous metastases were detected”. The “metastases visualized compared with Pylarify PET/CT” value (Subject #8) was “Solitary avid osseous metastasis were observed in both exams”, the “detection rate of metastatic lesions compared with Pylarify” value (eight subjects) was “higher detection rate of metastatic lesions” and the “higher tumor-to-background ratio than Pylarify, on average” value (eight subjects) was 90%.

Source: US20260241046A1, “PROSTATE-SPECIFIC MEMBRANE ANTIGEN RECEPTOR-TARGETING RADIOPHARMACEUTICALS AND USES THEREOF” (Nuclidium AG, priority 2024, published 2026)
